The numbers were not newly measured in patent publication EP3733197A1, “ANAEROBIC ANTIOXIDANT COMPOSITION” (Pitcher, Stephen N., priority 2019, dated 2020), which cites them from elsewhere.

The conditions of data set [1]: in vivo.

On to `CC(=O)N[C@@H](CS)C(=O)O` [NAC, N-acetylcysteine], for which the pregnancy risk result (in vivo) was “category B”. Also, for the setting “orally administered or inhaled”, the associated adverse effects result is “drowsiness, stomatitis, clamminess, rhinorrhea, and hemoptysis”. In addition, in data set [1], the half-life result is recorded as “approximately 5.6 hours” and the “renally excreted by the body” value is recorded as 30%.
